Test results as given in PubChem BioAssay (NCI).
“And” between values parts separate entries of the source, which are not always exact repeats. Equal values may be shown once.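 Following 48 hours of exposure in 96-well plates, responses at five concentrations were used to interpolate endpoints linearly. GI50: concentration for 50% inhibition of growth. Definition used: TGI = concentration required for complete inhibition of growth.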

Legend:
Experiment in all cases: growth of human tumour cells (NCI), 48 h
A498 renal = test system: A498 renal
K-562 leukemia = test system: K-562 leukemia
OVCAR-5 ovarian = test system: OVCAR-5 ovarian
OVCAR-8 ovarian = test system: OVCAR-8 ovarian
SK-MEL-28 melanoma = test system: SK-MEL-28 melanoma
U251 CNS = test system: U251 CNS
UACC-257 melanoma = test system: UACC-257 melanoma
SNB-75 CNS = test system: SNB-75 CNS
BT-549 breast = test system: BT-549 breast
PC-3 prostate = test system: PC-3 prostate

SMILES	TGI (A498 renal) [µM]	TGI (K-562 leukemia) [µM]	TGI (OVCAR-5 ovarian) [µM]	TGI (OVCAR-8 ovarian) [µM]	TGI (SK-MEL-28 melanoma) [µM]	TGI (U251 CNS) [µM]	TGI (UACC-257 melanoma) [µM]	TGI (SNB-75 CNS)	GI50 (BT-549 breast) [µM]	TGI (BT-549 breast) [µM]	GI50 (OVCAR-5 ovarian) [µM]	GI50 (OVCAR-8 ovarian) [µM]	GI50 (PC-3 prostate) [µM]	TGI (PC-3 prostate) [µM]	GI50 (SK-MEL-28 melanoma) [µM]	GI50 (U251 CNS) [µM]	GI50 (UACC-257 melanoma) [µM]	GI50 (A498 renal) [µM]	GI50 (K-562 leukemia) [µM]	GI50 (SNB-75 CNS) [µM]
COC(=O)/C=C1/CCC2[C@@H](C(=O)CC3[C@]2(C)CCC[C@@]3(C)C(=O)OC)C1C (stereo not given in full)	34.4	14.2	39.4	34.9	26.8	29.5	24.7													
CN(C)CCNC(=O)c1cc2ccccc2c2nc3ccccc3nc12	2.4	1.96	5.64	> 20.4	2.96	4.92	3.09	4.26 µM												
CS(=O)(=O)NNS(=O)(=O)c1cccc([N+](=O)[O-])c1	> 100	> 100		> 100		> 100	> 100	> 100 µM												
Cc1ccc(NC(=O)C(=O)C2C(=O)N(c3ccccc3)N=C2N)cc1C (stereo not given)	> 100	> 100	> 100	> 100	> 100	> 100	> 100	> 100 µM												
CC(=O)OC(/C=C1/C=CC(=O)O1)COC(=O)c1ccccc1 (stereo not given)	> 31.2	> 31.2	> 31.2	> 31.2	> 31.2	> 31.2	> 31.2	> 31.2 µM												
CCOC(=O)/C(O)=C(/c1n[nH]c(=O)c2ccccc12)[N+](=O)[O-]	> 100	> 100	> 100	> 100	> 100	> 100	> 100	> 100 µM												
O=c1cccccc1NCCOCCNc1cccccc1=O	> 100	> 100	> 100	> 100	> 100	> 100	> 100	> 100 µM												
Cc1ccc(NC(=O)CCC(CC(=O)C(C)(C)C)=NNC(=O)C(=O)NN)cc1C		> 100	> 100	> 100	> 100		> 100	> 100 µM												
CCOC12OC3=C(CC1CC1=C(CCC1=O)O2)C(=O)CC3 (stereo not given)	> 100	> 100	> 100	> 100		> 100	> 100	> 100 µM												
Cc1cc2c(cc1Cl)SC1=CC(=O)N(c3ccccc3)C1=NS2(=O)=O			> 100	> 100	40.9	> 100	> 100		30	65.3	> 100	57.1	37.4	> 100	16.9	57.5	51.5			
Cc1cc(NS(=O)(=O)c2ccc(N=Nc3cc(N=Nc4ccc(S(=O)(=O)Nc5cc(C)nc(C)n5)cc4)c4c(NC(=O)C(Cl)Cl)cccc4c3OC(=O)C(Cl)Cl)cc2)nc(C)n1 (tested in a mixture with another compound)	71.1	> 100	30.6	> 100	52.2	32.8	70.2	76.9 µM												
O=S(=O)(O)O.[NH-]C1CCCCC1[NH-].[Pt+2] (stereo not given)	> 100	> 100	> 100	> 100	> 100	> 100	> 100	61.5 µM			> 100	80.1			> 100	> 100	> 100	32.3	37	0.722
Oc1ccccc1-c1nn(CNc2cccc(Cl)c2)c(=S)o1	> 100	> 100	> 100	> 100		39.6	> 100		94.4	> 100	> 100	> 100	32.9	> 100		4.91	> 100	60.1	38.4	
CCC[CH2][Sn]1([CH2]CCC)[O]C(=O)c2cc(I)cc(I)c2[O]1	2.67	1.25	3.48	3.01		2.1	2.55	2.25 µM			1.99	1.41				0.882	1.24	1.37	0.284	1.04
Cc1[nH]c2ccccc2c1C1Cc2ccccc2N1C(=O)/C=C/C=C/c1ccccc1 (stereo not given)	> 100	> 100	> 100	> 100	> 100	> 100	> 100	> 100 µM												
[O-]c1c2c(nn1-c1ccccc1)c1ccccc1c[n+]2Cc1ccccc1		> 100	> 100	> 100	> 100	> 100	> 100	> 100 µM												

SMILES	TGI (A498 renal) [µM]	TGI (K-562 leukemia) [µM]	TGI (OVCAR-5 ovarian) [µM]	TGI (OVCAR-8 ovarian) [µM]	TGI (SK-MEL-28 melanoma) [µM]	TGI (U251 CNS) [µM]	TGI (UACC-257 melanoma) [µM]	TGI (SNB-75 CNS)	GI50 (BT-549 breast) [µM]	TGI (BT-549 breast) [µM]	GI50 (OVCAR-5 ovarian) [µM]	GI50 (OVCAR-8 ovarian) [µM]	GI50 (PC-3 prostate) [µM]	TGI (PC-3 prostate) [µM]	GI50 (SK-MEL-28 melanoma) [µM]	GI50 (U251 CNS) [µM]	GI50 (UACC-257 melanoma) [µM]	GI50 (A498 renal) [µM]	GI50 (K-562 leukemia) [µM]	GI50 (SNB-75 CNS) [µM]
C/C(=C\C(C)COCc1ccccc1)[C@H](COCc1ccccc1)OCc1ccccc1 (stereo not given in full)	> 100	> 100	> 100	> 100	> 100	> 100		> 100 µM												
COc1cc(/C=C2\[C@H]3c4c(c(OC)c(C)c(OC)c4OC)C[C@@H](C(=O)N2Cc2ccccc2)N3C(=O)OCC(C)C)c(OC)c(C)c1OC	> 100	> 100	> 100	> 100	> 100	> 100	> 100	> 100 µM												
COc1ccc2c(=O)c(C)c(-c3ccccc3)oc2c1CN(C)C	> 100	> 100	> 100	> 100	> 100	> 100	> 100	> 100 µM and 98.4 µM												
COc1ccc2c(c1)c(-c1ccc(-c3cn(S(=O)(=O)c4ccccc4)c4ccc(OC)cc34)s1)cn2S(=O)(=O)c1ccccc1	> 100	> 100	> 100		> 100	> 100		> 100 µM			> 100		> 100	> 100	> 100	> 100		> 100	> 100	> 100
O=c1/c(=C/c2cccc([N+](=O)[O-])c2)sc2nc3ccccc3n12	> 100	> 100	> 100	> 100	> 100		> 100	> 100 µM												
CCOC(C)C(/C=N/NC(N)=S)=NNC(N)=S (stereo not given)	85.2	> 100	> 100	> 100	> 100	> 100	> 100	> 89.4 µM												
COc1cc(/C=C2/C(=O)N(C(=O)OC(C)C)C(Cc3cc(OC)c(OC)c(C)c3OC)C(=O)N2Cc2ccccc2)c(OC)c(C)c1OC (stereo not given)	> 100	> 100	> 100	> 100	> 100	> 100	> 100	> 100 µM												
Cc1cc(O)cc2oc(=O)c3c(O)cc(O)cc3c12	> 100	> 100	> 100	> 100	> 100	> 100	> 100	32.2 µM												
Cc1c(Cl)ccc2c1NC(=O)C2(O)C(C(=O)c1ccccc1)c1ccccc1 (stereo not given)	70.1	> 100	> 100	> 100	> 100	> 100	89	> 100 µM												
O=S1c2ccccc2N=C(c2ccc3ccccc3c2)CC1C1=CC=CCC1 (stereo not given)		27.4	40.6	49.4	33.1		34.8	50.6 µM												
COc1ccccc1OCC(=O)Nc1sc2c(c1C(N)=O)CCC2	> 100	> 100	> 100	> 100	> 100	> 100		> 100 µM	> 100	> 100	> 100	12.7			> 100	> 100		> 100	> 100	> 100
COc1ccc(C(=O)OCC2OC(n3cnc4c(=S)nc[nH]c43)C(OC(=O)c3ccc(OC)cc3)C2OC(=O)c2ccc(OC)cc2)cc1 (stereo not given)		> 100	> 100	> 100	> 100	> 100	> 100	77 µM												
COC(=O)C1=C2CCC(=O)[C@@]2(C)C(OC(C)=O)C=CC1 (stereo not given in full)	> 100	> 100	> 100	> 100	> 100	> 100	> 100	> 100 µM												
CC(=O)[CH-]C(=O)c1ccccc1.CC(=O)[CH-]C(=O)c1ccccc1.CC[O-].CC[O-].[Zr+4]		> 100	> 100	> 100	> 100	> 100	> 100	> 100 µM			> 100	> 100			> 100	> 100	> 100		> 100	> 100
O=S(=O)(/C=C/c1ccc(Cl)cc1Cl)Cc1ccccc1CS(=O)(=O)/C=C/c1ccc(Cl)cc1Cl	> 100	> 100	> 100	> 100	> 100	> 100	> 100	> 100 µM												
CC1CC2(C)ON=C(c3ccccc3)N2c2ccccc2S1 (stereo not given)		43							24.8	67.4	34.3	37.3			76.7	34.9	36.8	34.7	16.3	41.8
